The values below are quoted from earlier work in US5084274A, “Inhibition of arterial thrombotic occlusion or thromboembolism” (Scripps Clinic and Research Foundation, priority 1987, dated 1992).

For this data set, the system named is acute arterial thrombosis. The conditions noted are these: used alone or in combination.

For the substance heparin, the “Response of acute complex arterial thrombosis (in words)” value was “unresponsive”.
